Where no end group is shown, it is not given here.

This is an account of results in article PMC4841036, “Synthesis and antimicrobial evaluation of two peptide LyeTx I derivatives modified with the chelating agent HYNIC for radiolabeling with technetium-99m” (The Journal of Venomous Animals and Toxins Including …, 2016).

In one assay the test system is S. aureus (ATCC® 6538). In words: Microdilution test, MIC in TSB. Conditions: microdilution (CLSI) in TSB, 37 °C for 24 h, MIC = reduction of 100 % in bacterial growth, median (n = 3), each in duplicate, NI = no inhibition. Type of assay: cell-based, Staphylococcus aureus. The procedure: (§1) The maintenance of the antimicrobial activity after peptide LyeTx I modifications with HYNIC was evaluated by microdilution test, according to the Clinical and Laboratory Standards Institute. Bacterial strains of reference, S. aureus (ATCC® 6538) and E. coli (ATCC® 10536), were grown on tryptic soy agar at 37 °C for 18 h. Then, 0.5 McFarland scale bacterial suspensions (10^8 CFU^.mL^−1) were prepared on tryptic soy broth (TSB). The readouts were carried by determination of minimum inhibitory concentration (MIC), defined as a reduction of 100 % in bacterial growth post-incubation with the peptide LyeTx I derivatives at 37 °C for 24 h. LyeTx I obtained by chemical synthesis and without the coupled chelating agent was used as treatment control. Only TSB (no bacterial suspension and no peptide) was used as negative control. TSB plus bacterial suspension (no peptide) were used as positive control. MIC was expressed as median (n = 3). Each replicate was performed with a different bacterial colony, in duplicate.

A further assay has as its system E. coli. The following applies: different assay conditions and other bacterial strains; cited from earlier work. The text has this: (§2) However, different assay conditions and other bacterial strains were employed, which can explain the slight differences in the MIC obtained in this study. […] On the other hand, the peptide HYNIC-LyeTx I derivative (N- ...
The next assay has as its system S. aureus. Conditions: different assay conditions and other bacterial strains; cited from earlier work.
From the text: as §2

The next assay deals with E. coli (ATCC® 10536). In words: Microdilution test, MIC in TSB. The format is cell-based, Escherichia coli. Conditions: microdilution (CLSI) in TSB, 37 °C for 24 h, MIC = reduction of 100 % in bacterial growth, median (n = 3), each in duplicate, NI = no inhibition. How it is done:
as §1
(In general: In broth dilution the organism is exposed to a series of concentrations in liquid medium.)

Turning to IWLTALKFLGKNLGKHLAKQQLAKL-NH2 [LyeTx I], the “Minimum inhibitory concentration (MIC)” value in the assay on S. aureus (ATCC® 6538) and with E. coli (ATCC® 10536) was 5.52 μmol^.L^−1 in each case. The MIC is on record as 7.81 μmol^.L^−1 in the assay with E. coli and 3.79 μmol^.L^−1 in the assay on S. aureus.
